Experiments:
Assay in all cases: post-emergence herbicidal activity, greenhouse
Type in all cases: in vivo
[1] = test system: Cocklebur
Text: (§1) A good grade of top soil is placed in aluminum pans having holes in the bottom and compacted to a depth of 0.95 to 1.27 cm. from the top of the pan. A predetermined number of seeds of each of several dicotyledonous and monocotyledonous annual plant species and/or vegetative propagules for the perennial plant species are placed on the soil and pressed into the soil surface. The seeds and/or vegetative propagules are covered with soil and leveled. The pans are then placed on a sand bench in the greenhouse and watered from below as needed. After the plants reach the desired age (two to three weeks), each pan except for the control pans is removed individually to a spraying chamber and sprayed by means of an atomizer operating at a positive air pressure of approximately 1.46 kg/cm^2 absolute. The atomizer contains 6 ml. of a solution or suspension of the chemical. In that 6 ml., is an amount of a cyclohexanone emulsifying agent mixture to give a spray solution or suspension which contains about 0.4% by weight of the emulsifier. The spray solution or suspension contains a sufficient amount of the candidate chemical in order to give application rates corresponding to those set forth in the tables. The spray solution is prepared by taking an aliquot of a 1.0% by weight stock solution or suspension of the candidate chemical in an organic solvent such as acetone or tetrahydrofuran or in water. The emulsifying agent employed is a mixture comprising 35 weight percent butylamine dodecylbenzene sulfonate and 65 weight percent of a tall oil ethylene oxide condensate having about 11 moles of ethylene oxide per mole of tall oil. The pans are returned to the greenhouse and watered as before and the injury to the plants as compared to the control is observed at approximately two and four weeks as indicated in the tables under WAT and the results recorded. In some instances, the two-week observations are omitted.
(§2) The post-emergence herbicidal activity index used in Table I is as follows: […]

[2] = test system: Yellow Nutsedge; conditions: Table I
Text: as §1, §2

[3] = test system: Johnsongrass; conditions: Table I
Text: as §1, §2

[4] = test system: Sugar Beet; conditions: Table II, 2 WAT
Text: as §1, §2

[5] = test system: Wheat; conditions: Table II, 2 WAT
Text: as §1, §2

[6] = test system: Panicum Spp; conditions: Table II, 2 WAT
Text: as §1, §2

[7] = test system: Lambsquarters
Text: as §1, §2

[8] = test system: Downy Brome
Text: as §1, §2

[9] = test system: Wild Buckwheat; conditions: Table II, 2 WAT
Text: as §1, §2

[10] = test system: Quackgrass; conditions: Table I
Text: as §1, §2

[11] = test system: Crabgrass; conditions: Table II, 2 WAT
Text: as §1, §2

[12] = test system: Hemp Sesbania; conditions: Table II, 2 WAT
Text: as §1, §2

[13] = test system: Morningglory
Text: as §1, §2

[14] = test system: Sorghum; conditions: Table II, 2 WAT
Text: as §1, §2

[15] = test system: Barnyardgrass
Text: as §1, §2

[16] = test system: Velvetleaf
Text: as §1, §2

[17] = test system: Smartweed
Text: as §1, §2

[18] = test system: Soybean; conditions: Table II, 2 WAT
Text: as §1, §2

[19] = test system: Rice; conditions: Table II, 2 WAT
Text: as §1, §2

## N#CCN(CP(=O)(Oc1ccccc1)Oc1ccccc1)SSc1ccc2ccccc2c1 [IX, Phosphonic acid, [[(cyanomethyl)(2-naphthalenyldithio)amino]methyl]-, diphenyl ester]
[1]; Table I, 2 WAT, 5.6 kg/h
  post-emergence herbicidal activity index: 0 (0-24% control)
[1]; Table I, 4 WAT, 11.2 kg/h
  post-emergence herbicidal activity index: 1 (25-49% control)
[1]; Table II, 2 WAT, 0.28 kg/h
  post-emergence herbicidal activity index: 0 (0-24% control)
[1]; Table II, 2 WAT, 1.12 kg/h
  post-emergence herbicidal activity index: 0 (0-24% control)
[1]; Table II, 2 WAT, 5.6 kg/h
  post-emergence herbicidal activity index: 1 (25-49% control)
[2]; 2 WAT, 5.6 kg/h
  post-emergence herbicidal activity index: 0 (0-24% control)
[2]; 4 WAT, 11.2 kg/h
  post-emergence herbicidal activity index: 0 (0-24% control)
[3]; 2 WAT, 5.6 kg/h
  post-emergence herbicidal activity index: 1 (25-49% control)
[3]; 4 WAT, 11.2 kg/h
  post-emergence herbicidal activity index: 1 (25-49% control)
[4]; 0.28 kg/h
  post-emergence herbicidal activity index: 0 (0-24% control)
[4]; 1.12 kg/h
  post-emergence herbicidal activity index: 0 (0-24% control)
[4]; 5.6 kg/h
  post-emergence herbicidal activity index: 0 (0-24% control)
[5]; 0.28 kg/h
  post-emergence herbicidal activity index: 0 (0-24% control)
[5]; 1.12 kg/h
  post-emergence herbicidal activity index: 0 (0-24% control)
[5]; 5.6 kg/h
  post-emergence herbicidal activity index: 1 (25-49% control)
[6]; 0.28 kg/h
  post-emergence herbicidal activity index: 0 (0-24% control)
[6]; 1.12 kg/h
  post-emergence herbicidal activity index: 0 (0-24% control)
[6]; 5.6 kg/h
  post-emergence herbicidal activity index: 0 (0-24% control)
[7]; Table I, 2 WAT, 5.6 kg/h
  post-emergence herbicidal activity index: 1 (25-49% control)
[7]; Table I, 4 WAT, 11.2 kg/h
  post-emergence herbicidal activity index: 3 (75-99% control)
[7]; Table II, 2 WAT, 0.28 kg/h
  post-emergence herbicidal activity index: 0 (0-24% control)
[7]; Table II, 2 WAT, 1.12 kg/h
  post-emergence herbicidal activity index: 0 (0-24% control)
[7]; Table II, 2 WAT, 5.6 kg/h
  post-emergence herbicidal activity index: 3 (75-99% control)
[8]; Table I, 2 WAT, 5.6 kg/h
  post-emergence herbicidal activity index: 0 (0-24% control)
[8]; Table I, 4 WAT, 11.2 kg/h
  post-emergence herbicidal activity index: 0 (0-24% control)
[8]; Table II, 2 WAT, 0.28 kg/h
  post-emergence herbicidal activity index: 0 (0-24% control)
[8]; Table II, 2 WAT, 1.12 kg/h
  post-emergence herbicidal activity index: 0 (0-24% control)
[8]; Table II, 2 WAT, 5.6 kg/h
  post-emergence herbicidal activity index: 0 (0-24% control)
[9]; 0.28 kg/h
  post-emergence herbicidal activity index: 0 (0-24% control)
[9]; 1.12 kg/h
  post-emergence herbicidal activity index: 0 (0-24% control)
[9]; 5.6 kg/h
  post-emergence herbicidal activity index: 1 (25-49% control)
[10]; 2 WAT, 5.6 kg/h
  post-emergence herbicidal activity index: 0 (0-24% control)
[10]; 4 WAT, 11.2 kg/h
  post-emergence herbicidal activity index: 1 (25-49% control)
[11]; 0.28 kg/h
  post-emergence herbicidal activity index: 0 (0-24% control)
[11]; 1.12 kg/h
  post-emergence herbicidal activity index: 0 (0-24% control)
[11]; 5.6 kg/h
  post-emergence herbicidal activity index: 2 (50-74% control)
[12]; 0.28 kg/h
  post-emergence herbicidal activity index: 0 (0-24% control)
[12]; 1.12 kg/h
  post-emergence herbicidal activity index: 0 (0-24% control)
[12]; 5.6 kg/h
  post-emergence herbicidal activity index: 1 (25-49% control)
[13]; Table I, 2 WAT, 5.6 kg/h
  post-emergence herbicidal activity index: 0 (0-24% control)
[13]; Table I, 4 WAT, 11.2 kg/h
  post-emergence herbicidal activity index: 0 (0-24% control)
[13]; Table II, 2 WAT, 0.28 kg/h
  post-emergence herbicidal activity index: 0 (0-24% control)
[13]; Table II, 2 WAT, 1.12 kg/h
  post-emergence herbicidal activity index: 0 (0-24% control)
[13]; Table II, 2 WAT, 5.6 kg/h
  post-emergence herbicidal activity index: 1 (25-49% control)
[14]; 0.28 kg/h
  post-emergence herbicidal activity index: 0 (0-24% control)
[14]; 1.12 kg/h
  post-emergence herbicidal activity index: 0 (0-24% control)
[14]; 5.6 kg/h
  post-emergence herbicidal activity index: 1 (25-49% control)
[15]; Table I, 2 WAT, 5.6 kg/h
  post-emergence herbicidal activity index: 0 (0-24% control)
[15]; Table I, 4 WAT, 11.2 kg/h
  post-emergence herbicidal activity index: 1 (25-49% control)
[15]; Table II, 2 WAT, 0.28 kg/h
  post-emergence herbicidal activity index: 0 (0-24% control)
[15]; Table II, 2 WAT, 1.12 kg/h
  post-emergence herbicidal activity index: 0 (0-24% control)
[15]; Table II, 2 WAT, 5.6 kg/h
  post-emergence herbicidal activity index: 1 (25-49% control)
[16]; Table I, 2 WAT, 5.6 kg/h
  post-emergence herbicidal activity index: 1 (25-49% control)
[16]; Table I, 4 WAT, 11.2 kg/h
  post-emergence herbicidal activity index: 1 (25-49% control)
[16]; Table II, 2 WAT, 0.28 kg/h
  post-emergence herbicidal activity index: 0 (0-24% control)
[16]; Table II, 2 WAT, 1.12 kg/h
  post-emergence herbicidal activity index: 0 (0-24% control)
[16]; Table II, 2 WAT, 5.6 kg/h
  post-emergence herbicidal activity index: 0 (0-24% control)
[17]; Table I, 2 WAT, 5.6 kg/h
  post-emergence herbicidal activity index: 0 (0-24% control)
[17]; Table I, 4 WAT, 11.2 kg/h
  post-emergence herbicidal activity index: 3 (75-99% control)
[17]; Table II, 2 WAT, 0.28 kg/h
  post-emergence herbicidal activity index: 0 (0-24% control)
[17]; Table II, 2 WAT, 1.12 kg/h
  post-emergence herbicidal activity index: 0 (0-24% control)
[17]; Table II, 2 WAT, 5.6 kg/h
  post-emergence herbicidal activity index: 1 (25-49% control)
[18]; 0.28 kg/h
  post-emergence herbicidal activity index: 0 (0-24% control)
[18]; 1.12 kg/h
  post-emergence herbicidal activity index: 0 (0-24% control)
[18]; 5.6 kg/h
  post-emergence herbicidal activity index: 0 (0-24% control)
[19]; 0.28 kg/h
  post-emergence herbicidal activity index: 0 (0-24% control)
[19]; 1.12 kg/h
  post-emergence herbicidal activity index: 0 (0-24% control)
[19]; 5.6 kg/h
  post-emergence herbicidal activity index: 0 (0-24% control)

## N#CCN(CP(=O)(Oc1ccccc1)Oc1ccccc1)SSCc1cccc(C(F)(F)F)c1 [VIII, Phosphonic acid, [[(cyanomethyl)[[[3-(trifluoromethyl)phenyl]methyl]dithio]amino]methyl]-, diphenyl ester]
[1]; Table I, 4 WAT, 5.6 kg/h
  post-emergence herbicidal activity index: 1 (25-49% control)
[1]; Table I, 4 WAT, 11.2 kg/h
  post-emergence herbicidal activity index: 2 (50-74% control)
[2]; 4 WAT, 5.6 kg/h
  post-emergence herbicidal activity index: 2 (50-74% control)
[2]; 4 WAT, 11.2 kg/h
  post-emergence herbicidal activity index: 2 (50-74% control)
[3]; 4 WAT, 5.6 kg/h
  post-emergence herbicidal activity index: 3 (75-99% control)
[3]; 4 WAT, 11.2 kg/h
  post-emergence herbicidal activity index: 3 (75-99% control)
[7]; Table I, 4 WAT, 5.6 kg/h
  post-emergence herbicidal activity index: 4 (100% control)
[7]; Table I, 4 WAT, 11.2 kg/h
  post-emergence herbicidal activity index: 4 (100% control)
[8]; Table I, 4 WAT, 5.6 kg/h
  post-emergence herbicidal activity index: 1 (25-49% control)
[8]; Table I, 4 WAT, 11.2 kg/h
  post-emergence herbicidal activity index: 2 (50-74% control)
[10]; 4 WAT, 11.2 kg/h
  post-emergence herbicidal activity index: 0 (0-24% control)
[13]; Table I, 4 WAT, 5.6 kg/h
  post-emergence herbicidal activity index: 1 (25-49% control)
[13]; Table I, 4 WAT, 11.2 kg/h
  post-emergence herbicidal activity index: 1 (25-49% control)
[15]; Table I, 4 WAT, 5.6 kg/h
  post-emergence herbicidal activity index: 2 (50-74% control)
[15]; Table I, 4 WAT, 11.2 kg/h
  post-emergence herbicidal activity index: 2 (50-74% control)
[16]; Table I, 4 WAT, 5.6 kg/h
  post-emergence herbicidal activity index: 1 (25-49% control)
[16]; Table I, 4 WAT, 11.2 kg/h
  post-emergence herbicidal activity index: 1 (25-49% control)
[17]; Table I, 4 WAT, 5.6 kg/h
  post-emergence herbicidal activity index: 0 (0-24% control)
[17]; Table I, 4 WAT, 11.2 kg/h
  post-emergence herbicidal activity index: 0 (0-24% control)

## N#CCN(CP(=O)(Oc1ccccc1)Oc1ccccc1)SSC1CCCCC1 [X, Phosphonic acid, [[(cyanomethyl)(cyclohexyldithio)amino]methyl]-, diphenyl ester]
[1]; Table I, 2 WAT, 5.6 kg/h
  post-emergence herbicidal activity index: 0 (0-24% control)
[1]; Table I, 4 WAT, 11.2 kg/h
  post-emergence herbicidal activity index: 2 (50-74% control)
[2]; 2 WAT, 5.6 kg/h
  post-emergence herbicidal activity index: 0 (0-24% control)
[2]; 4 WAT, 11.2 kg/h
  post-emergence herbicidal activity index: 0 (0-24% control)
[3]; 2 WAT, 5.6 kg/h
  post-emergence herbicidal activity index: 0 (0-24% control)
[3]; 4 WAT, 11.2 kg/h
  post-emergence herbicidal activity index: 1 (25-49% control)
[7]; Table I, 2 WAT, 5.6 kg/h
  post-emergence herbicidal activity index: 3 (75-99% control)
[7]; Table I, 4 WAT, 11.2 kg/h
  post-emergence herbicidal activity index: 3 (75-99% control)
[8]; Table I, 2 WAT, 5.6 kg/h
  post-emergence herbicidal activity index: 0 (0-24% control)
[8]; Table I, 4 WAT, 11.2 kg/h
  post-emergence herbicidal activity index: 1 (25-49% control)
[10]; 2 WAT, 5.6 kg/h
  post-emergence herbicidal activity index: 0 (0-24% control)
[10]; 4 WAT, 11.2 kg/h
  post-emergence herbicidal activity index: 0 (0-24% control)
[13]; Table I, 2 WAT, 5.6 kg/h
  post-emergence herbicidal activity index: 0 (0-24% control)
[13]; Table I, 4 WAT, 11.2 kg/h
  post-emergence herbicidal activity index: 1 (25-49% control)
[15]; Table I, 2 WAT, 5.6 kg/h
  post-emergence herbicidal activity index: 0 (0-24% control)
[15]; Table I, 4 WAT, 11.2 kg/h
  post-emergence herbicidal activity index: 1 (25-49% control)
[16]; Table I, 2 WAT, 5.6 kg/h
  post-emergence herbicidal activity index: 1 (25-49% control)
[16]; Table I, 4 WAT, 11.2 kg/h
  post-emergence herbicidal activity index: 1 (25-49% control)
[17]; Table I, 2 WAT, 5.6 kg/h
  post-emergence herbicidal activity index: 0 (0-24% control)
[17]; Table I, 4 WAT, 11.2 kg/h
  post-emergence herbicidal activity index: 0 (0-24% control)

Reference: patent US4508663A, “Process for preparing thiosulfenamide derivatives of N-phosphonomethylglycinonitriles” (Monsanto Company, priority 1983, dated 1985)
